Test results published in US6787653B2, “Preparation process of biphenylcarboxylic acid amide derivatives” (Kowa Co., Ltd., priority 2002, dated 2004).
Counter-ions that a name gives are not always drawn.

How the values were obtained:
[1] = test system: IgE antibody production by B cells; assay: Evaluation of inhibitory activity against IgE antibody production; format: cell-based; conditions: B-cell; mouse (Balb/C) spleen B cells cultured with LPS and mouse IL-4; IgE in culture supernatant by ELISA
Description: After the spleen was enucleated from a mouse (Balb/C, male, aged 8 weeks) and shredded in 0.3 wt. % BSA/HBSS, single cells were obtained using a 200-mesh screen. The single cells were then hemolyzed by a 0.75 wt. % ammonium chloride·17 mmol/L Tris solution and a splenocyte suspension (1×10^7/mL) was prepared using RPMI 1640 medium/25 mmol/L HEPES/0.3 wt. % BSA. After the suspension was reacted with a rat anti-mouse Thy-1,2 monoclonal antibody (product of Cedarlane Co.) at 4° C. for 1 hour, the reaction mixture was centrifuged and the sediment cells were suspended again (1×10^7/mL, RPMI/HEPES/BSA). After the suspension-was reacted with a low-cytotoxic rabbit complement (product of Cedarlane Co.) at 37° C. for 1 hour, killed cells were removed by specific gravity centrifugation using lympholyte M (product of Cedarlane Co.) to obtain a B cell fraction as viable cells.
After culturing B cells ([…]) for one day together with LPS (E. coli 026:B6, product of DIFCO Co.) on a 96-well plate, mouse IL-4 (product of Genzyme Co.) was added. The mixture was cultured for further 7 days. Each test compound was added on the first day of the culture. After culturing, the amount of IgE antibody in a culture supernatant was assayed by ELISA, and the inhibitory activity of the test compound against production of an IgE antibody was calculated.

## COc1cc(-c2ccc(C(=O)N3CCN(CCCN4CCN(C(=O)c5ccc(-c6cc(OC)c(C(C)=O)c(OC)c6)cc5)CC4)CC3)cc2)cc(OC)c1C(C)=O (as salt: hydrochloride) [Example 5, 1,3-Bis[4-[4-(4-acetyl-3,5-dimethoxyphenyl)benzoyl]-1-piperazinyl]propane Dihydrochloride]
other
  melting point: 240 °C (dec.)

## CCCOc1c(OC)cc(-c2ccc(C(=O)N3CCN(CCCN4CCN(C(=O)c5ccc(-c6cc(OC)c(OCCC)c(OC)c6)cc5)CC4)CC3)cc2)cc1OC (as salt: hydrochloride) [Example 6, 1,3-Bis[4-[4-(3,5-dimethoxy-4-propoxyphenyl)benzoyl]-1-piperazinyl]propane Dihydrochloride]
other
  melting point: 266 °C (dec.)

## COc1cc(-c2ccc(C(=O)N3CCN(CCCN4CCN(C(=O)c5ccc(-c6cc(OC)c(OC(C)C)c(OC)c6)cc5)CC4)CC3)cc2)cc(OC)c1OC(C)C (as salt: methanesulfonate) [Example 2, 1,3-Bis [4-[4-(4-isopropoxy-3,5-dimethoxyphenyl)benzoyl]-1-piperazinyl]propane Dimethanesulfonate]
other
  melting point: 235.5 °C (dec.)

## CCOc1c(OC)cc(-c2ccc(C(=O)N3CCN(CCCN4CCN(C(=O)c5ccc(-c6cc(OC)c(OCC)c(OC)c6)cc5)CC4)CC3)cc2)cc1OC (as salt: methanesulfonate) [Example 4, 1,3-Bis[4-[4-(4-ethoxy-3,5-dimethoxyphenyl)benzoyl]-1-piperazinyl]propane Dimethanesulfonate]
other
  melting point: 245 °C (dec.)

## COc1cc(-c2ccc(C(=O)N3CCN(CCCN4CCN(C(=O)c5ccc(-c6cc(OC)c(OC)c(OC)c6)cc5)CC4)CC3)cc2)cc(OC)c1OC [Example 1, 1,3-Bis[4-[4-(3,4,5-trimethoxyphenyl)benzoyl]-1-piperazinyl]propane Dihydrochloride]
[1]
  IC50: 100 nM

## COc1cc(-c2ccc(C(=O)N3CCN(CCCN4CCN(C(=O)c5ccc(-c6cc(OC)c(OC(C)C)c(OC)c6)cc5)CC4)CC3)cc2)cc(OC)c1OC(C)C [Example 2, 1,3-Bis [4-[4-(4-isopropoxy-3,5-dimethoxyphenyl)benzoyl]-1-piperazinyl]propane Dimethanesulfonate]
[1]
  IC50: 200 nM

## COc1cc(-c2ccc(C(=O)N3CCN(CCCN4CCN(C(=O)c5ccc(-c6cc(OC)c(SC)c(OC)c6)cc5)CC4)CC3)cc2)cc(OC)c1SC [Example 3, 1,3-Bis[4-[4-(3,5-dimethoxy-4-methylthiophenyl)benzoyl]-1-piperazinyl]propane Dihydrochloride]
[1]
  IC50: 80 nM

## CCOc1c(OC)cc(-c2ccc(C(=O)N3CCN(CCCN4CCN(C(=O)c5ccc(-c6cc(OC)c(OCC)c(OC)c6)cc5)CC4)CC3)cc2)cc1OC [Example 4, 1,3-Bis[4-[4-(4-ethoxy-3,5-dimethoxyphenyl)benzoyl]-1-piperazinyl]propane Dimethanesulfonate]
[1]
  IC50: 400 nM

## COc1cc(-c2ccc(C(=O)N3CCN(CCCN4CCN(C(=O)c5ccc(-c6cc(OC)c(C(C)=O)c(OC)c6)cc5)CC4)CC3)cc2)cc(OC)c1C(C)=O [Example 5, 1,3-Bis[4-[4-(4-acetyl-3,5-dimethoxyphenyl)benzoyl]-1-piperazinyl]propane Dihydrochloride]
[1]
  IC50: 600 nM

## CCCOc1c(OC)cc(-c2ccc(C(=O)N3CCN(CCCN4CCN(C(=O)c5ccc(-c6cc(OC)c(OCCC)c(OC)c6)cc5)CC4)CC3)cc2)cc1OC [Example 6, 1,3-Bis[4-[4-(3,5-dimethoxy-4-propoxyphenyl)benzoyl]-1-piperazinyl]propane Dihydrochloride]
[1]
  IC50: 300 nM
